Results taken from ChEMBL document CHEMBL1152845, “Synthesis, cytotoxicity and apoptosis of naphthalimide polyamine conjugates as antitumor agents” (Eur J Med Chem, 2009).
The source made the active and inactive calls. No cut-off for these calls is given here.

Experiments:
B16 [1] = assay: Cytotoxicity against mouse B16 cells after 48 hrs by MTT assay; format: functional, cell-based; settings: B16, 48 h
K562 = assay: Cytotoxicity against human K562 cells after 48 hrs by MTT assay; format: functional, cell-based; settings: K562, 48 h
CHO = assay: Cytotoxicity against CHO cells after 48 hrs by MTT assay; format: cell-based; settings: Cricetulus griseus
Bel-7402 = assay: Cytotoxicity against human Bel7402 cells after 48 hrs by MTT assay; format: functional, cell-based; settings: Bel-7402, 48 h
[2] = Cytotoxicity against human QSG7701 cells after 48 hrs by MTT assay; format: cell-based; settings: QSG7701, 48 h
[3] = Cytotoxicity against mouse Mel-A cells after 48 hrs by MTT assay; format: cell-based
B16 [4] = assay: Induction of apoptosis in mouse B16 cells assessed as sub-G1 DNA content at 2.0 uM after 48 hrs by flow cytometry; format: functional
B16 [5] = assay: Induction of apoptosis in mouse B16 cells assessed as reduction in Bcl2 level after 48 hrs by Western blot relative to control; format: functional, cell-based
Calf thymus DNA = assay: Binding affinity to calf thymus DNA at 80 uM by spectrophotometry; format: nucleic-acid assay; settings: Bos taurus
B16 [6] = assay: Cell cycle arrest in mouse B16 cells by accumulation at G0/G1 phase at 2.0 uM after 48 hrs by flow cytometry; format: functional
B16 [7] = assay: Induction of apoptosis in mouse B16 cells assessed as increase in caspase-8 cleavage after 48 hrs by Western blot relative to control; format: functional, cell-based
B16 [8] = assay: Cell cycle arrest in mouse B16 cells by accumulation at S phase at 0.5 uM after 48 hrs by flow cytometry; format: functional
B16 [9] = assay: Induction of apoptosis in mouse B16 cells assessed as increase in Bax level after 48 hrs by Western blot relative to control; format: functional, cell-based
B16 [10] = assay: Cell cycle arrest in mouse B16 cells by accumulation at S phase at 2.0 uM after 48 hrs by flow cytometry; format: functional
B16 [11] = assay: Induction of apoptosis in mouse B16 cells assessed as sub-G1 DNA content at 0.5 uM after 48 hrs by flow cytometry; format: functional
B16 [12] = assay: Cell cycle arrest in mouse B16 cells by accumulation at G2/M phase at 0.5 uM after 48 hrs by flow cytometry; format: functional
B16 [13] = assay: Cell cycle arrest in mouse B16 cells by accumulation at G2/M phase at 1.0 uM after 48 hrs by flow cytometry; format: functional
B16 [14] = assay: Cell cycle arrest in mouse B16 cells by accumulation at G2/M phase at 2.0 uM after 48 hrs by flow cytometry; format: functional
B16 [15] = assay: Induction of apoptosis in mouse B16 cells assessed as sub-G1 DNA content at 1.0 uM after 48 hrs by flow cytometry; format: functional
B16 [16] = assay: Induction of apoptosis in mouse B16 cells assessed as increase in caspase-3 cleavage after 48 hrs by Western blot relative to control; format: functional, cell-based
B16 [17] = assay: Induction of apoptosis in mouse B16 cells assessed as increase in mitochondrial cytochrome-C release after 48 hrs by Western blot relative to control; format: functional, cell-based
B16 [18] = assay: Cell cycle arrest in mouse B16 cells by accumulation at G0/G1 phase at 0.5 uM after 48 hrs by flow cytometry; format: functional
B16 [19] = assay: Cell cycle arrest in mouse B16 cells by accumulation at S phase at 1.0 uM after 48 hrs by flow cytometry; format: functional
B16 [20] = assay: Cell cycle arrest in mouse B16 cells by accumulation at G0/G1 phase at 1.0 uM after 48 hrs by flow cytometry; format: functional
B16 [21] = assay: Induction of apoptosis in mouse B16 cells assessed as increase in caspase-9 cleavage after 48 hrs by Western blot relative to control; format: functional, cell-based

`O=C1NC(=O)c2cccc3cccc1c23` showed an IC50 (B16 [1]) greater than 50000 nM, an IC50 (K562) greater than 50 µM and an IC50 (CHO) greater than 50 µM.

Compound `NCCCNCCCCNCCCN1C(=O)c2cccc3cccc(c23)C1=O` has an IC50 (B16 [1]) of 620 nM, an IC50 (Bel-7402) of 1060 nM and an IC50 (K562) of 1.64 µM. For the same compound, the IC50 (CHO) was 1.21 µM and the IC50 [2] was greater than 50 µM.

In the case of `NCCCCNCCCCNCc1c2ccccc2cc2ccccc12`, the IC50 (B16 [1]) is reported as 1400 nM, the IC50 (K562) is reported as 0.95 µM and the IC50 (CHO) is reported as 1.25 µM. It also gave an IC50 [3] of 8.3 µM.

Work on `NCCCCNCCCCNCCCN1C(=O)c2cccc3cccc(c23)C1=O` yielded an IC50 (B16 [1]) of 5360 nM, an IC50 (K562) of 9.08 µM and an IC50 (CHO) of 9.09 µM.

Compound `NCCCNCCCCN1C(=O)c2cccc3cccc(c23)C1=O` has an IC50 (B16 [1]) of 13900 nM, an IC50 (K562) of 11.4 µM and an IC50 (CHO) of 20.7 µM.

For `NCCCNCCCCNCCCCN1C(=O)c2cccc3cccc(c23)C1=O`, the IC50 (B16 [1]) was 2700 nM, the IC50 (K562) was 3.84 µM and the IC50 (CHO) was 3.43 µM.

In the case of `Cl.NCCCCNCCCCNCCCCN1C(=O)c2cccc3cccc(c23)C1=O`, the Activity (B16 [4]) is reported as 38.63%, the Activity (B16 [5]) is reported as “Active” and the Activity (Calf thymus DNA) is reported as “Active”. For the same compound, the IC50 (B16 [1]) was 690 nM, the Activity (B16 [6]) was 58.47% and the Activity (B16 [7]) was “Dose-dependent effect”. For the same compound, the IC50 (Bel-7402) was 3560 nM, the Activity (B16 [8]) was 11.7% and the Activity (B16 [9]) was “Active”. It also gave an Activity (B16 [10]) of 7.34%, an IC50 (K562) of 1.16 µM and an IC50 (CHO) of 2.58 µM. For the same compound, the Activity (B16 [11]) was 9.68%, the IC50 [2] was greater than 50 µM and the Activity (B16 [12]) was 18.52%. The Activity (B16 [13]) was 24.91%, the Activity (B16 [14]) was 34.19% and the Activity (B16 [15]) was 16.84%. For the same compound, the Activity (B16 [16]) was “Dose-dependent effect”, the Activity (B16 [17]) was “Active” and the Activity (B16 [18]) was 69.78%. The Activity (B16 [19]) was 9.71%, the Activity (B16 [20]) was 65.38% and the Activity (B16 [21]) was “Dose-dependent effect”.
